Data on 4 compounds can be found in article PMC6937156, “The nature of the ligand’s side chain interacting with the S1'-subsite of metallocarboxypeptidase T (from Thermoactinomyces vulgaris) determines the geometry of the tetrahedral transition complex” (PLoS ONE, 2019).

The target of this experiment is T1, carboxypeptidase T (CPT) (Thermoactinomyces vulgaris, UniProt P29068).
T1 construct: mature enzyme; one molecule in asymmetric unit
Briefly: inhibition of tripeptide hydrolysis, integral kinetic curves at […] nm. It is filed as biochemical.

As a reminder, the Ki is the dissociation constant of the complex between target and ligand, obtained from inhibition or displacement. Low readings indicate tighter binding, high ones weaker binding. In the case of `N=C(N)NCCC[C@H](NS(N)(=O)=O)C(=O)O` [SArg, N-sulfamoyl-L-arginine], affinity was put at a Ki of 340 µM.

`NS(=O)(=O)N[C@@H](CCC(=O)O)C(=O)O` [SGlu, N-(aminosulfonyl)-L-glutamic acid] came in with a Ki of 3090 µM.

As to `CC(C)C[C@H](NS(N)(=O)=O)C(=O)O` [SLeu, N-(aminosulfonyl)-L-leucine], the Ki worked out at 8.94 µM.

The compound `NS(=O)(=O)N[C@@H](Cc1ccccc1)C(=O)O` [SPhe, N-sulfamoyl-L-phenylalanine] returned an inhibition constant Ki of 35.1 µM.
